In PMC7073924, “2-Aminomethylene-5-sulfonylthiazole Inhibitors of Lysyl Oxidase (LOX) and LOXL2 Show Significant Efficacy in Delaying Tumor Growth” (Journal of Medicinal Chemistry, 2019):
Several values for one entry are separate records, joined by “and”; a condition that tells them apart may be missing. Identical values can stand only once. Counter-ions that a name gives are not always drawn. Like-named read-outs stand apart in the source and are kept apart here.

Columns and labels:
[1] = biological target: T1, LOXL3 (Homo sapiens, UniProt P58215); design: method as in PMID 30536539, PMID 28471663; settings: literature compounds; cited from earlier work
T1 sequence (P58215 26-753): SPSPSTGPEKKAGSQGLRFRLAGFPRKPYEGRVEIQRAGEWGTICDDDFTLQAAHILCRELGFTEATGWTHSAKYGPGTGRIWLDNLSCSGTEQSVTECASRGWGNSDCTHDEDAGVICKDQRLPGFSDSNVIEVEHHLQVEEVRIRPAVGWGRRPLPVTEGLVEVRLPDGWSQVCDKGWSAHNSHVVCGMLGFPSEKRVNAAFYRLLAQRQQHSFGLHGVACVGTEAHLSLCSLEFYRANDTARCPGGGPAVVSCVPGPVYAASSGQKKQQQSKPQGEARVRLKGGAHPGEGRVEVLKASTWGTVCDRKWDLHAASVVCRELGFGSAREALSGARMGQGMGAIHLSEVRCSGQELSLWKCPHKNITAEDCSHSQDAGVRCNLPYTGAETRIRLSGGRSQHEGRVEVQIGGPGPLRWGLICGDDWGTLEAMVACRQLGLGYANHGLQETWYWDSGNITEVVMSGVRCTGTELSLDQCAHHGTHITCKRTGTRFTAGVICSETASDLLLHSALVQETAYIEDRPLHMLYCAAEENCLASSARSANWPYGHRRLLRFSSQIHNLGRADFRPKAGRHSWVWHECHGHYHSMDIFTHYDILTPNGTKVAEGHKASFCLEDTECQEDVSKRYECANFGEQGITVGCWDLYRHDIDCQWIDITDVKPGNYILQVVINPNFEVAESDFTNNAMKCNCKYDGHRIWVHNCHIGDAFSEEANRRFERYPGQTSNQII

[2] = biological target: T2, SSAO (Homo sapiens, UniProt Q16853); format: biochemical
T2 construct: purchased Sigma
T2 sequence (Q16853 1-763): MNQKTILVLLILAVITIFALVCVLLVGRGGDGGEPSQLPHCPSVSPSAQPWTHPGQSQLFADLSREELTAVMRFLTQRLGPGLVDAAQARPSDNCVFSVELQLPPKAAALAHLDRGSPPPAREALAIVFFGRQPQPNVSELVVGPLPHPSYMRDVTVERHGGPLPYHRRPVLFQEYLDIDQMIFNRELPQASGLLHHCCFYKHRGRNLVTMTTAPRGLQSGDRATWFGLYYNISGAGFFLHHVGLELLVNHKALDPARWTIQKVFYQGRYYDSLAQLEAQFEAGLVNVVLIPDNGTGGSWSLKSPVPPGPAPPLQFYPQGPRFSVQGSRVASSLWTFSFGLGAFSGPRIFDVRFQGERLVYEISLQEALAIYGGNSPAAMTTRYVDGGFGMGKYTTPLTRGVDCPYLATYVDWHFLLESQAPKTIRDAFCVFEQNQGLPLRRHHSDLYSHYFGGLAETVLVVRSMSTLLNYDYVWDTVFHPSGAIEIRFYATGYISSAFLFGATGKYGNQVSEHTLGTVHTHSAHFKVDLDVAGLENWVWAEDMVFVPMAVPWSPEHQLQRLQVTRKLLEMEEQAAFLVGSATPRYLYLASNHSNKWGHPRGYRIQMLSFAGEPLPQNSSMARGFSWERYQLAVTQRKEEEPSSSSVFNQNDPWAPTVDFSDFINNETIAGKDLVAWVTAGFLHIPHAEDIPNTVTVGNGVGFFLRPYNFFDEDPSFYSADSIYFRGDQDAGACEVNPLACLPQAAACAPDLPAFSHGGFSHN
Method: (§1) All amine oxidase assays were performed with concentrations as above. MAO-A and MAO-B enzymes were purchased from Sigma. The catalytic activity of MAO-A and MAO-B was determined using the Promega MAO-Glo assay kit (substrate included), with clorgyline and deprenyl as reference inhibitor controls, respectively. DAO was purchased from Sigma, and the catalytic activity was determined using the Promega ROS-Glo assay kit, with aminoguanidine as the reference inhibitor control. SSAO was purchased from Sigma. SSAO catalytic activity was determined using the Promega MAO-Glo assay kit, with mofegiline as the reference inhibitor control.

[3] = biological target: T2, SSAO; experiment: Assessment of compound as a substrate for SSAO (Amplex red); format: biochemical; settings: hydrogen peroxide quantified with Amplex red kit; benzylamine positive control
[4] = biological target: T3, LOX (Sus scrofa, UniProt P45845); experiment: LOX enzyme assay (Promega ROS-Glo, cadaverine substrate); format: biochemical, pig
T3 sequence (P45845 1-249): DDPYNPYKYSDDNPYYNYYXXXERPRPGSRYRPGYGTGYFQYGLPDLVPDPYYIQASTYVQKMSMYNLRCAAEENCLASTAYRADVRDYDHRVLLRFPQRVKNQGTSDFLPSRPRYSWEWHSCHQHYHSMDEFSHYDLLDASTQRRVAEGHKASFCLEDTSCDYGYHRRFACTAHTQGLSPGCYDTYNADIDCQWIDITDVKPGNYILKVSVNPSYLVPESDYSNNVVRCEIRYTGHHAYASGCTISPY
Method: (§2) LOXL2 and LOXL3 were purchased from R&D Systems. LOX, LOXL2, and LOXL3 catalytic activity were determined using the Promega ROS-Glo assay kit with cadaverine dihydrochloride as substrate, BAPN as the reference inhibitor control, a preincubation time of 20 min, 1 h, or 3 h, with nine dilutions from a top concentration of 10 μM or 100 μM.

[5] = biological target: T1, LOXL3; experiment: LOXL3 enzyme assay (Promega ROS-Glo, cadaverine substrate); format: biochemical
Method: as §2

[6] = biological target: T4, MAO-A (Homo sapiens, UniProt P21397); format: biochemical; settings: Table 7
T4 construct: purchased Sigma
T4 sequence (P21397 1-527): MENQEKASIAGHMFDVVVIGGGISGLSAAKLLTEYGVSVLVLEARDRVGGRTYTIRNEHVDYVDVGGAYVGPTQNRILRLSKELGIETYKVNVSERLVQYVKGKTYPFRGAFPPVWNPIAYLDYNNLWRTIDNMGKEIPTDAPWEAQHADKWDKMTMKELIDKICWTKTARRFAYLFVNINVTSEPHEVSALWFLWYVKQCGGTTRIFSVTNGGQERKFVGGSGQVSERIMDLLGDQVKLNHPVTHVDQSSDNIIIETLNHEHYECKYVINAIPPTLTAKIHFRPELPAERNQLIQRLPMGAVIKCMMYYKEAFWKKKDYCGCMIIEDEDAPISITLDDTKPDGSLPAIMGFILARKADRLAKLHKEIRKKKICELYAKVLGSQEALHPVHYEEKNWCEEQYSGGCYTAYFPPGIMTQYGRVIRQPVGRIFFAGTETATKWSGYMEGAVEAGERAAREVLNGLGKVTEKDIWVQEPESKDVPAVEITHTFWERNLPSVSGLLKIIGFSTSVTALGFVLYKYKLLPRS
Method: as §1

[7] = biological target: T5, MAO-B (Homo sapiens, UniProt P27338); format: biochemical; settings: Table 7
T5 construct: purchased Sigma
T5 sequence (P27338 1-520): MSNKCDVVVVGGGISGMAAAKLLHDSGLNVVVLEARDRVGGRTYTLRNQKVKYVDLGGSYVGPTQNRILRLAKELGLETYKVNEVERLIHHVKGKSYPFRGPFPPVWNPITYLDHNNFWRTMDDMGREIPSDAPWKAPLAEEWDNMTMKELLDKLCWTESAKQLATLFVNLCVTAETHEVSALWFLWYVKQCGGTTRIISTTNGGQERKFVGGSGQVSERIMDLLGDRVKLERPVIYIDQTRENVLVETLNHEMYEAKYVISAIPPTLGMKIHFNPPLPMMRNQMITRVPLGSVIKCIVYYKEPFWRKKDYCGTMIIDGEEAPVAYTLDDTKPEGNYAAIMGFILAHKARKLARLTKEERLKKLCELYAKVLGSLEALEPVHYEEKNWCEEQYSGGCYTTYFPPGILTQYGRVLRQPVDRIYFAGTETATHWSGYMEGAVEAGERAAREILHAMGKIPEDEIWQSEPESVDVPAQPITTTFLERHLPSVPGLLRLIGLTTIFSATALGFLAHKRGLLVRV
Method: as §1

[8] = biological target: T6, DAO (Sus scrofa, UniProt Q9TRC7); format: biochemical; settings: Table 7
T6 construct: purchased Sigma
T6 sequence (Q9TRC7 25-755): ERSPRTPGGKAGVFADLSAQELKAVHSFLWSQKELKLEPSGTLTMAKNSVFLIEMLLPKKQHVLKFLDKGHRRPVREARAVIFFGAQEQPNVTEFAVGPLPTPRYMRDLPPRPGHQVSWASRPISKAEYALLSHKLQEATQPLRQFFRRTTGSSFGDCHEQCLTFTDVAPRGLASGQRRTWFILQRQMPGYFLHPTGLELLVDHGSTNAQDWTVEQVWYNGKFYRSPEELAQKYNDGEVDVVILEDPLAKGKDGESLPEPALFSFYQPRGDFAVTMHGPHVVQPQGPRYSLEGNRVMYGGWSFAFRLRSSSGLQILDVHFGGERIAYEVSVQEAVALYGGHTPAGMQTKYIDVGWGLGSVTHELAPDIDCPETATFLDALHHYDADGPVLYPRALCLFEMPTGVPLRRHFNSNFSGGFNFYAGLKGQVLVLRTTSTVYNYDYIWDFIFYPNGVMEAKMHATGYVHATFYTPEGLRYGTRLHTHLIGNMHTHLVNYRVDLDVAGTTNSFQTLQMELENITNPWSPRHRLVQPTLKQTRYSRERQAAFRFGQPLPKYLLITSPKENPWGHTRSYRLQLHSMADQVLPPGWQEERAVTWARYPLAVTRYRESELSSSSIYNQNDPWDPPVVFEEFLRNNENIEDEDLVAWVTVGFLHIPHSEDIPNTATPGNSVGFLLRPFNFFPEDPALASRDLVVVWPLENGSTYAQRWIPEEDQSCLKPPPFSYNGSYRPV
Method: as §1

[9] = biological target: T7, LOXL2 (Homo sapiens, UniProt Q9Y4K0); experiment: LOXL2 enzyme assay (Promega ROS-Glo, cadaverine substrate); format: biochemical
T7 sequence (Q9Y4K0 26-774): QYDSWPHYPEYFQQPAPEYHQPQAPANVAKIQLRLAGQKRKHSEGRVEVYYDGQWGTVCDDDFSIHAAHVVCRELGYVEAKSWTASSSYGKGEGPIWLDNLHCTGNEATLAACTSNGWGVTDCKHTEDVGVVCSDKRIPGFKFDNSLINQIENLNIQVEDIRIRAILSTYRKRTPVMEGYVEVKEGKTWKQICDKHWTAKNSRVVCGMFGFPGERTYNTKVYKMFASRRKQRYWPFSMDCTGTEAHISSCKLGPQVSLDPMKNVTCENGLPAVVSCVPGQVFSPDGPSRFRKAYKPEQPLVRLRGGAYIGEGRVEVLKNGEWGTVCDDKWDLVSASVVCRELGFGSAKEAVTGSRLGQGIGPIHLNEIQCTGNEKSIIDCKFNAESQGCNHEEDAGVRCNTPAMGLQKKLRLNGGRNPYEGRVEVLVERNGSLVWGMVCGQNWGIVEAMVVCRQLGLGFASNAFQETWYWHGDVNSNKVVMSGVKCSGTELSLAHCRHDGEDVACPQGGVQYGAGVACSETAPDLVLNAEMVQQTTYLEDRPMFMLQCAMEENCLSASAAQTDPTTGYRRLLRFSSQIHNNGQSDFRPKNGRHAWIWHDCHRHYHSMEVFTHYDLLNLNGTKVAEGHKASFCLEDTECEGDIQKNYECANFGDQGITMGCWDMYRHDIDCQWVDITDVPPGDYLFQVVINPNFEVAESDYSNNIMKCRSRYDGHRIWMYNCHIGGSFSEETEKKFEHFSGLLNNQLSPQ
Method: as §2

[10] = biological target: T7, LOXL2; format: biochemical
Method: The enzyme/inhibitor mixture was then diluted 100-fold into a solution containing all enzyme reaction components, and the activity of the enzyme was assessed.
LOXL2 catalytic activity was determined using the Amplex Red hydrogen peroxide assay kit with cadaverine dihydrochloride as substrate. […] The enzyme/inhibitor mixture was then diluted 100-fold into a solution containing substrate and detection reagents and read kinetically every 5 min.

[11] = supplementary csv, unit inferred

Row | SMILES | IC50 ([4]; Table 6, 1 h preincubation) | IC50 [5] | IC50 [6] [µM] | IC50 [7] [µM] | IC50 [8] [µM] | IC50 ([2]; Table 7) | further results
1 | Cc1c(-c2cccc(S(=O)(=O)N(C)C)c2)c2ncccc2n1C/C(F)=C/CN [Compound 1] |  |  |  |  |  |  | activity for LOXL2 and LOXL3 within x-fold [1]: ≤ 3 fold
2 | NCc1cc(Oc2cccc(C(=O)N3C[C@@H](O)[C@H](F)C3)c2)nc(C(F)(F)F)c1 [Compound 2] |  |  |  |  |  |  | activity for LOXL2 and LOXL3 within x-fold [1]: ≤ 3 fold
3 | CCc1cc(-c2cnn(C)c2)cc(S(=O)(=O)c2cnc(CN)s2)c1 [Compound 21b, (5-((3-Ethyl-5-(1-methyl-1H-pyrazol-4-yl)phenyl)sulfonyl)thiazol-2-yl)methanamine Hydrochloride] |  |  |  |  |  |  | IC50 [2]: 28.6 µM and 19.6 µM; substrate of SSAO [3]: not a substrate of SSAO
4 | Cn1cc(-c2cc(S(C)(=O)=O)cc(S(=O)(=O)c3cnc(CN)s3)c2)cn1 [Compound 21a, (5-((3-(1-Methyl-1H-pyrazol-4-yl)-5-(methylsulfonyl)phenyl)sulfonyl)thiazol-2-yl)methanamine Hydrochloride] | 3.42 µM and 2.65 µM | 1220 nM and 1510 nM | > 100 | > 100 | > 100 | 13.3 µM and 17.2 µM | IC50 ([5]; Table 6, 1 h preincubation): ~1000 nM
5 | N#CCCN [BAPN, β-aminopropionitrile, reference compound] |  | 310 nM |  |  |  |  | IC50 ([9]; read-out: LOXL2, 20 min, IC50): 4260 nM; IC50 ([9]; read-out: LOXL2, 1 h, IC50): 665 nM; IC50 ([9]; read-out: LOXL2, 3 h, IC50): 372 nM; IC50 ([9]; read-out: LOXL2 IC50): 665 nM; IC50 [4]: 3.14 µM; LOXL2 inhibition at 10 × IC50 before dilution [10]: complete inhibition; mode of LOXL2 inhibition [10]: irreversible inhibitor
6 | CS(=O)(=O)c1cc(-c2ccccc2)cc(S(=O)(=O)c2csc(CN)n2)c1 [Compound 22b, (4-((5-(Methylsulfonyl)-[1,1′-biphenyl]-3-yl)sulfonyl)thiazol-2-yl)methanamine Hydrochloride] | > 100 µM | 3860 nM and 4260 nM | > 100 | > 100 | > 100 | > 100 µM | IC50 [4, 11]: > 100 µM
7 | Cn1cc(-c2cc(S(C)(=O)=O)cc(S(=O)(=O)c3csc(CN)n3)c2)cn1 [Compound 22c, (4-((3-(1-Methyl-1H-pyrazol-4-yl)-5-(methylsulfonyl)phenyl)sulfonyl)thiazol-2-yl)methanamine Hydrochloride] | > 100 µM | 7560 nM and 6690 nM | > 100 | > 100 | > 100 | > 100 µM | IC50 [4, 11]: > 100 µM
